27 compounds from patent US10501467B2, “Fused tetra or penta-cyclic dihydrodiazepinocarbazolones as PARP inhibitors” (BeiGene, Ltd., priority 2011, dated 2019) can be followed below.

One assay concerns PARP PARylation in HeLa cells. In words: PARylation assay in HeLa cells. The class given is cell-based. The note with it: H2O2-provoked DNA damage.
`CN(C)c1ccc(C2CC3=NNC(=O)c4cc(F)cc5[nH]c(c3c45)C2)cc1` (stereo not drawn) [Compound 12, 2-(4-(dimethylamino)phe-nyl)-8-fluoro-2,3,5,10-tetrahydro-[1,2]diazepino[3,4,5,6-def]carbazol-6(1H)-one]: it took 26.6 nM to reach a half-maximal effect (EC50). That is a double-digit nanomolar value.

The compound “2-phenyl-2,3,5,10- tetrahydro- [1,2]diazepino[3,4, 5,6-def]carbazol- 6(1H)-one [Compound 5]” displayed a 50% effective concentration (EC50) of 10.1 nM.

The assay is the same for the next values; noted with them: Homo sapiens, H2O2-provoked DNA damage.
For the compound `O=C1NN=C2CN(C(=O)OCc3ccccc3)Cc3[nH]c4cc(F)cc1c4c32` [Compound 21, Benzyl 6-fluoro-8-oxo-3,4,8,9-tetrahydro-2,4,9,10-tetraazacyclohepta[def]fluorene-2(1H)-carboxylate], the EC50 is 14 nM.

In turn, `CC(C)(C)CCN1CC2=NNC(=O)c3cccc4[nH]c(c2c34)C1` [Compound 54, 2-(3,3-dimethylbutyl)-2,3,4,9-tetrahydro-2,4,9,10-tetraazayclohepta[def]fluoren-8(1H)-one] showed an EC50 of 23 nM.

`O=C1NN=C2CN(C3CCCCC3)Cc3[nH]c4cccc1c4c32` [Compound 53, 2-Cyclohexyl-2,3,4,9-tetrahydro-2,4,9, 10-tetraazacyclohepta[def]fluoren-8(1H)-one] yielded an EC50 of 20 nM. This EC50 and that of the compound before are within 1.5-fold of each other.

Consider `CC1(C)CC2=NNC(=O)c3cc(F)cc4[nH]c(c2c34)C1=O` [Compound 26, 8-Fluoro-2,2-dimethyl-2,3-dihydro-[1,2]diazepino[3,4,5,6-def]carbazole-1,6(5H,10H)-dione], for which the concentration giving a half-maximal response (EC50) was found to be 4.5 nM.

As for `CN(C)CCN1CC2=NNC(=O)c3cccc4[nH]c(c2c34)C1` [Compound 60, 2-(2-(dimethylamino)ethyl)-2,3,4,9-tetrahydro-2,4,9,10-tetraazacyclohepta[def]fluoren-8(1H)-one], it took 68.5 nM to reach a half-maximal effect (EC50).

Compound `CC(C)(C)OC(=O)N[C@@H](Cc1ccccc1)C(=O)N1CC2=NNC(=O)c3cccc4[nH]c(c2c34)C1` [Compound 63, (S)-tert-butyl (1-oxo-1-(8-oxo-8,9-dihydro-2,4,9,10-tetraazacyclohepta[def]fluoren-2(1H,3H,4H)-yl)-3-phenylpropan-2-yl)carbamate] came in with an EC50 of 235 nM. This EC50 is about 3.4-fold higher than that of the compound before.

`CC1CC2=NNC(=O)c3cccc4[nH]c(c2c34)C1` (stereo not drawn) [Compound 3, 2-methyl-2,3,5,10-tetrahydro-[1,2]diazepino[3,4,5,6-def]carbazol-6(1H)-one] yielded a concentration for a half-maximal effect (EC50) of 4.6 nM.

Regarding `CN1CC2=NNC(=O)c3cccc4[nH]c(c2c34)C1` [Compound 44, 2-Methyl-2,3,4,9-tetrahydro-2,4,9,10-tetraazacyclohepta[def]fluoren-8(1H)-one], the EC50 came to 24 nM.

On to `CC(C)(C)C(=O)N1CC2=NNC(=O)c3cc(F)cc4[nH]c(c2c34)C1` [Compound 52, 6-Fluoro-2-pivaloyl-2,3,4,9-tetrahydro-2,4,9,10-tetraazacyclohepta[def]fluoren-8(1H)-one], for which it took 13.5 nM to reach a half-maximal effect (EC50).

For `CN(C)c1ccc(C2CC3=NNC(=O)c4cccc5[nH]c(c3c45)C2)cc1` (stereo not drawn) [Compound 13, 2-(4-(dimethylamino)phe-nyl)-2,3,5,10-tetrahydro-[1,2]diazepino[3,4,5,6-def]carbazol-6(1H)-one], the EC50 was determined as 77.6 nM.

Consider `CC(C)N1CC2=NNC(=O)c3cccc4[nH]c(c2c34)C1` [Compound 45, 2-Isopropyl-2,3,4,9-tetrahydro-2,4,9,10-tetraazacyclohepta[def]fluoren-8(1H)-one], for which the EC50 turned out to be 3.8 nM.

Regarding `CC(C)(C)C(=O)N1CC2=NNC(=O)c3cccc4[nH]c(c2c34)C1` [Compound 51, 2-Pivaloyl-2,3,4,9-tetrahydro-2,4,9,10-tetraazacyclohepta[def]fluoren-8(1H)-one], the EC50 came out at 9.6 nM.

For the compound `O=C1NN=C2CN(C(=O)C3CC3)Cc3[nH]c4cccc1c4c32` [Compound 47, 2-(cyclopropanecarbonyl)-2,3,4,9-tetrahydro-2,4,9,10-tetraazacyclohepta[def]fluoren-8(1H)-one], the midpoint of the response, the EC50, lay at 6.9 nM.

For `CC1(C)CCc2[nH]c3cccc4c3c2C1=NNC4=O` [Compound 4, 3,3-dimethyl-2,3,5,10-tetrahydro-[1,2]diazepino[3,4,5,6-def]carbazol-6(1H)-one], the EC50 is 46.7 nM.

`CN1N=C2CC(C)(C)Cc3c2c2c(cccc2n3C)C1=O` [Compound 25, 2,2,5,10-tetramethyl-2,3,5,10-tetrahydro-[1,2]diazepino[3,4,5,6-def]carbazol-6(1H)-one] displayed an EC50 of more than 1000 nM.

The compound `CN(C)CCN1CC2=NNC(=O)c3cc(F)cc4[nH]c(c2c34)C1` [Compound 61, 2-(2-(Dimethylamino)ethyl)-6-fluoro-2,3,4,9-tetrahydro-2,4,9,10-tetraazacyclohepta[def]fluoren-8(1H)-one] registered an EC50 of 42 nM. This counts as double-digit nanomolar.

Consider `O=C1NN=C2CN(C(=O)OCc3ccccc3)Cc3[nH]c4cccc1c4c32` [Compound 20, Benzyl 8-oxo-3,4,8,9-tetrahydro-2,4,9,10-tetraazacyclohepta[def]fluorene-2(1H)-carboxylate], for which the EC50 was 7.3 nM.

`CCCCN1CC2=NNC(=O)c3cc(F)cc4[nH]c(c2c34)C1` [Compound 59, 2-Butyl-6-fluoro-2,3,4,9-tetrahydro-2,4,9,10-tetraazacyclohepta[def]fluoren-8(1H)-one] came in with an EC50 of 2 nM.

The compound `CN(C)CCn1c2c3c4c(cccc41)C(=O)NN=C3CN(C(=O)C1CC1)C2` [Compound 48, 2-(cyclopropanecarbonyl)-4-(2-(dimethylamino)ethyl)-2,3,4,9-tetrahydro-2,4,9,10-tetraazacyclohepta[def]fluoren-8(1H)-one] showed an EC50 of 6 nM.

For the compound `CN(C)CCn1c2c3c4c(cc(F)cc41)C(=O)NN=C3CN(C(=O)C1CC1)C2` [Compound 50, 2-(Cyclopropanecarbonyl)-4-(2-(dimethylamino)ethyl)-6-fluoro-2,3,4,9-tetrahydro-2,4,9,10-tetraazacyclohepta[def]fluoren-8(1H)-one], the response was half-maximal at 21 nM (EC50).

In the case of `C[C@]12CCCN1CC1=NNC(=O)c3cc(F)cc4[nH]c2c1c34` [Compound 69], the concentration giving a half-maximal response (EC50) came out at 0.6 nM.

`CC1(C)CC2=NNC(=O)c3cccc4c3c2c(n4CCO)C1` [Compound 67, 10-(2-hydroxyethyl)-2,2-dimethyl-2,3,5,10-tetrahydro-[1,2]diazepino[3,4,5,6-def]carbazol-6(1H)-one]: the EC50 came out at 247 nM.

Consider `CN(C)CCn1c2c3c4c(cccc41)C(=O)NN=C3CCC2` [Compound 37, 10-(2-(dimethylamino)ethyl)-2,3,5,10-tetrahydro-[1,2]diazepino[3,4,5,6-def]carbazol-6(1H)-one], for which the midpoint of the response, the EC50, lay at 22 nM. This EC50 is about 11-fold lower than that of the compound before.

`CCCN1CC2=NNC(=O)c3cccc4[nH]c(c2c34)C1` [Compound 56, 2-Propyl-2,3,4,9-tetrahydro-2,4,9,10-tetraazacyclohepta[def]fluoren-8(1H)-one] yielded an EC50 of 6.4 nM.

In turn, `CC(C)C1CC2=NNC(=O)c3cccc4[nH]c(c2c34)C1` (stereo not drawn) [Compound 6, 2-isopropyl-2,3,5,10-tetrahydro-[1,2]diazepino[3,4,5,6-def]carbazol-6(1H)-one] returned a 50% effective concentration (EC50) of 3.9 nM.
